Data taken from patent US20040198754A1, “Composition and method for appetite and craving suppression and mood enhancement” (Pro-Health, Inc., priority 2003, published 2004).

Assay: Individual human case reports of oral theobromine tablets (appetite, cravings, mood, energy, weight, side effects), with earlier use of commercial diet products
Assay type: in vivo
From the text: They lost 18 lbs., and did report having a headache. No other side effects were reported.
No other side effects were reported.
They lost 9 lbs. in 21 days.
They also took Metabolife 356® made by Metabolife International Inc. which contains a caffeine-ephedrine combination.
A person had been taking Xenadrine EFX (ephedrine free, contains synephrine) to try to stop smoking while losing weight, but with little effect on their appetite and nicotine craving. […] They discontinued use of theobromine over a weekend, and noted that the urge to smoke again became strong. […] They were also exercising, and despite quitting smoking at the same time, lost 4.5 pounds, and reported fitting into clothes that they hadn't been able to wear for several years.

[1] = person, 500 mg. theobromine 4 times per day for 21 days
[2] = person, 2 grams per day for 12 days
[3] = person, 3,250 mg. tablets per day for 10 days
[4] = person, 4, 250 mg. tablets four times per day for 21 days
[5] = person, up to 2 grams daily for 28 days
[6] = smoker, 750 mg. theobromine per day for three weeks

With Cn1cnc2c1c(=O)[nH]c(=O)n2C [theobromine, 3,7-dimethylxanthine] the “craving for sweets (self-reported)” value (person with lifelong cravings for sweets, one 250 mg. tablet per day) was “no craving for such sweets”, the “appetite (self-reported)” value (person, 500 mg. of Theobromine) was “appetite suppression” and the “energy (self-reported)” value (person, 500 mg. of Theobromine) was “good energy”. The “mood (self-reported)” value (person, 500 mg. of Theobromine) was “sense of well being”, the “appetite and food cravings (self-reported)” value [1] was “reduced appetite and food cravings” and the “energy (self-reported)” value [1] was “increased energy without a stimulant high”. For the same compound, the weight lost [1] was 8 lbs, the weight lost (person, 750 mg. theobromine per day for three weeks, also exercising and quitting smoking) was 4.5 pounds and the “appetite (self-reported)” value [2] was “less appetite”. For the same compound, the “energy, mood and thinking (self-reported)” value [2] was “more energy, improved mood and clearer thinking”, the weight loss [2] was 5 pound and the “appetite (self-reported)” value [3] was “reduced appetite”. The “energy (self-reported)” value [3] was “excellent energy”, the “mood (self-reported)” value [3] was “euphoric calmness to their mood” and the weight lost [3] was 8 lbs. For the same compound, the “appetite (self-reported)” value [4] was “reduced appetite”, the “mood and energy (self-reported)” value [4] was “elevated mood, more energy” and the weight lost [4] was 18 lbs. For the same compound, the “appetite (self-reported)” value [5] was “lowered appetite”, the “energy or mood (self-reported)” value [5] was “no energy or mood difference” and the weight lost (person, up to 2 grams daily, in 21 days) was 9 lbs. The “appetite (self-reported)” value [6] was “reduced appetite”, the “cravings for chocolate prior to menses (self-reported)” value [6] was “reduction in cravings for chocolate” and the “mood (self-reported)” value [6] was “much calmer and less angry”. The “urge to smoke (self-reported)” value [6] was “loss of the urge to smoke”.
